The target of assay [1] is T1, Cannabinoid receptor 1 (Homo sapiens, UniProt P21554). The assay can be described thus: Displacement of [3H]SR141716A from membrane bound human CB1 receptor at 10 uM after 1 hr by beta scintillation counting method relative to control.
The species entered for assay [2] is Homo sapiens. Nature of the assay: Selectivity ratio of compound effect for displacement of [3H]CP55940 from membrane bound human CB2 receptor at 10 uM to compound effect for displacement of [3H]SR141716A from membrane bound human CB1 receptor at 10 uM.
Assay [3] deals with T2, Cannabinoid receptor 2 (Homo sapiens, UniProt P34972). The assay can be described thus: Displacement of [3H]CP55940 from membrane bound human CB2 receptor at 100 uM after 1 hr by beta scintillation counting method relative to control.
T2 sequence (P34972 whole entry): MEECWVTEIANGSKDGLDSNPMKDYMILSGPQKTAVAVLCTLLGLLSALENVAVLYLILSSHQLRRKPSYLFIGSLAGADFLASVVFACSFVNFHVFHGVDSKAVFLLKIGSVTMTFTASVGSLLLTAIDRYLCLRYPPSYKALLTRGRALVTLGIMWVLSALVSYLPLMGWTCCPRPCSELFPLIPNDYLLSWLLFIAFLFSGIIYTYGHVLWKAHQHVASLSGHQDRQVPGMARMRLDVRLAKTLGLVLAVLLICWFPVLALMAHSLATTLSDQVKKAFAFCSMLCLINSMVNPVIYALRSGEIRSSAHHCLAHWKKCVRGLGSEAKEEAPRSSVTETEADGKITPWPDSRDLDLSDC
Assay [4] addresses T2, Cannabinoid receptor 2. Nature of the assay: Displacement of [3H]CP55940 from membrane bound human CB2 receptor at 10 uM after 1 hr by beta scintillation counting method relative to control.
Assay [5] is filed under the species Homo sapiens. Nature of the assay: Selectivity ratio of IC50 for displacement of [3H]SR141716A from membrane bound human CB1 receptor to IC50 for displacement of [3H]CP55940 from membrane bound human CB2 receptor.
For assay [6], the target named is T2, Cannabinoid receptor 2. Nature of the assay: Displacement of [3H]CP55940 from membrane bound human CB2 receptor after 1 hr by beta scintillation counting method.
The target in assay [7] is T1, Cannabinoid receptor 1. The assay can be described thus: Displacement of [3H]SR141716A from membrane bound human CB1 receptor at 100 uM after 1 hr by beta scintillation counting method relative to control.
Assay [8] deals with T1, Cannabinoid receptor 1. Nature of the assay: Displacement of [3H]SR141716A from membrane bound human CB1 receptor after 1 hr by beta scintillation counting method.
For assay [9], the species on record is Homo sapiens. The assay can be described thus: Selectivity ratio of compound effect for displacement of [3H]SR141716A from membrane bound human CB1 receptor at 100 uM to compound effect for displacement of [3H]CP55940 from membrane bound human CB2 receptor at 100 uM.

T1 sequence (P21554 whole entry): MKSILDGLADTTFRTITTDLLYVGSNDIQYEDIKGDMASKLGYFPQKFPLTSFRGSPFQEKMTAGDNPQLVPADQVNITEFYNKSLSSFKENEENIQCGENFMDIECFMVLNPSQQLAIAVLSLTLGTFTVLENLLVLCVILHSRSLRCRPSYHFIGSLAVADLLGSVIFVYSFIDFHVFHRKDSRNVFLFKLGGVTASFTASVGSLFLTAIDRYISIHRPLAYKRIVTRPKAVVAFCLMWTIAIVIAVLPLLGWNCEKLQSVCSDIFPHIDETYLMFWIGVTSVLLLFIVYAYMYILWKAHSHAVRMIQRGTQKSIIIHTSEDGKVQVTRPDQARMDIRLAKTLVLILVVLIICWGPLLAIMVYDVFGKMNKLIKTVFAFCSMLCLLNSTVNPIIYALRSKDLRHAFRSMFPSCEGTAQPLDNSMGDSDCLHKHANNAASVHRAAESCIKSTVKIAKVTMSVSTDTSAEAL

Take `O=C(c1cccc2ccccc12)c1ccc(OCCCCO)c2ccccc12`: the inhibition in [1] is 31.2%; in assay [3], 89.9%; in [4], 91.7%; in assay [7], 72%. In addition, the Selectivity ratio in assay [2] was determined as 2.93. For the same compound, the Ratio IC50 in [5] was determined as 3.55. The IC50 is 5.05 µM in assay [6] and 17.9 µM in [8].

As to `O=C(c1cccc2ccccc12)c1ccc(OCCCCCO)c2ccccc12`, the results for the inhibition in assay [1] and in assay [4] were 35.8% and 75.3%, respectively. In addition, in [2], the Selectivity ratio worked out at 2.1. Also, in [5], the Ratio IC50 is over 9.26. Also, the results for the IC50 in assay [6] and in assay [8] were 1.08 µM and over 10 µM, respectively.

For `COC(=O)CCCCOc1ccc(C(=O)c2cccc3ccccc23)c2ccccc12`, the inhibition in assay [1] is 4.44%; in assay [3] it was 85.6%; in assay [4], 11.9%; in assay [7] it was 36.5%. The Selectivity ratio in [2] worked out at 2.69. For the same compound, in assay [5], the Ratio IC50 is over 2.1. The IC50 in assay [6] was 47.7 µM; in assay [8], over 100 µM.

Regarding `COC(=O)CCCOc1ccc(C(=O)c2cccc3ccccc23)c2ccccc12`, the inhibition in assay [1] turned out to be 43.1%; in assay [3], 101%; in assay [4], 96.9%; in assay [7], 68.8%. Moreover, the Selectivity ratio in assay [2] was determined as 2.25. Also, in [5], the Ratio IC50 came to 8.36. Moreover, the results for the 50% inhibitory concentration (IC50) in assay [6] and in [8] were 1.69 µM and 14.1 µM, respectively.

As to `O=C(c1cccc2ccccc12)c1ccc(OCCCO)c2ccccc12`, the inhibition in [1] worked out at 21.3%; in [3], 78.5%; in [4], 37.4%; in [7], 55.6%. In assay [2], the Selectivity ratio worked out at 1.76. In addition, the Ratio IC50 in [5] stood at 6.81. For the same compound, the IC50 in assay [6] came out at 14.7 µM; in assay [8], 100 µM.

Consider `O=C(c1cccc2ccccc12)c1ccc(OCCCCCCO)c2ccccc12`, for which the inhibition is 42.6% in assay [1] and 46.9% in assay [4]. Also, in assay [2], the Selectivity ratio came out at 1.1. Moreover, the IC50 in [6] and in assay [8] was over 10 µM in each case.

With `O=C(O)CCCOc1ccc(C(=O)c2cccc3ccccc23)c2ccccc12`, the inhibition in assay [3] was determined as 5.36%; in assay [7], 16%. For the same compound, the Selectivity ratio in assay [9] is 2.99. Moreover, the half-maximal inhibitory concentration (IC50) in assay [6] and in [8] was over 100 µM in each case.

As for `CCCCCOc1ccc(C(=O)c2cccc3ccccc23)c2ccccc12`, the inhibition in [1] and in assay [4] was 64.2% each time. The concentration for half-maximal inhibition (IC50) in assay [6] came to 5.3 µM.

In the case of `O=C(O)CCCCOc1ccc(C(=O)c2cccc3ccccc23)c2ccccc12`, the inhibition in assay [1] is 13%; in assay [3], 52.1%; in [4], 36.6%; in [7] it was 20.5%. Moreover, the Selectivity ratio in assay [2] was 2.81. Also, in [5], the Ratio IC50 is over 7.92. For the same compound, the IC50 in assay [6] was 12.6 µM; in assay [8], over 100 µM.
